Source: ChEMBL document CHEMBL5352447, “Development of [1,2]oxazoloisoindoles tubulin polymerization inhibitors: Further chemical modifications and potential therapeutic effects against lymphomas” (Eur J Med Chem, 2022)

Legend:
SF-268 = experiment: Antiproliferative activity against human SF-268 cells assessed as cell growth inhibition incubated for 72 hrs by MTT assay; assay type: functional
RXF 393 = experiment: Antiproliferative activity against human RXF 393 cells assessed as cell growth inhibition incubated for 72 hrs by MTT assay; assay type: functional
SF-295 = experiment: Antiproliferative activity against human SF-295 cells assessed as cell growth inhibition incubated for 72 hrs by MTT assay; assay type: functional
UACC-62 = experiment: Antiproliferative activity against human UACC-62 cells assessed as cell growth inhibition incubated for 72 hrs by MTT assay; assay type: functional
OVCAR-8 = experiment: Antiproliferative activity against human OVCAR-8 cells assessed as cell growth inhibition incubated for 72 hrs by MTT assay; assay type: functional
[1] = Antiproliferative activity against human MINO cells assessed as inhibition of cell proliferation incubated for 72 hrs by MTT assay; assay type: functional, cell-based
VL51 [2] = experiment: Antiproliferative activity against human VL51 cells assessed as inhibition of cell proliferation incubated for 72 hrs by MTT assay; assay type: functional, cell-based; details: VL51, 72 h
CCRF-CEM = experiment: Antiproliferative activity against human CCRF-CEM cells assessed as cell growth inhibition incubated for 72 hrs by MTT assay; assay type: functional
HT-29 = experiment: Antiproliferative activity against human HT-29 cells assessed as cell growth inhibition incubated for 72 hrs by MTT assay; assay type: functional
SR = experiment: Antiproliferative activity against human SR cells assessed as cell growth inhibition incubated for 72 hrs by MTT assay; assay type: functional
Malme-3M = experiment: Antiproliferative activity against human Malme-3M cells assessed as cell growth inhibition incubated for 72 hrs by MTT assay; assay type: functional
BT-549 = experiment: Antiproliferative activity against human BT-549 cells assessed as cell growth inhibition incubated for 72 hrs by MTT assay; assay type: functional
[3] = Antiproliferative activity against human MINO cells assessed as proliferating cells at 1 uM incubated for 72 hrs by MTT assay relative to control; assay type: functional
DU-145 = experiment: Antiproliferative activity against human DU-145 cells assessed as cell growth inhibition incubated for 72 hrs by MTT assay; assay type: functional
SW-620 = experiment: Antiproliferative activity against human SW620 cells assessed as cell growth inhibition incubated for 72 hrs by MTT assay; assay type: functional
LOX IMVI = experiment: Antiproliferative activity against human LOX IMVI cells assessed as cell growth inhibition incubated for 72 hrs by MTT assay; assay type: functional
SK-MEL-5 = experiment: Antiproliferative activity against human SK-MEL-5 cells assessed as cell growth inhibition incubated for 72 hrs by MTT assay; assay type: functional
SNB-75 = experiment: Antiproliferative activity against human SNB-75 cells assessed as cell growth inhibition incubated for 72 hrs by MTT assay; assay type: functional
MCF7 = experiment: Antiproliferative activity against human MCF7 cells assessed as cell growth inhibition incubated for 72 hrs by MTT assay; assay type: functional
NCI-H522 = experiment: Antiproliferative activity against human NCI-H522 cells assessed as cell growth inhibition incubated for 72 hrs by MTT assay; assay type: functional
SN12C = experiment: Antiproliferative activity against human SN12C cells assessed as cell growth inhibition incubated for 72 hrs by MTT assay; assay type: functional
NCI/ADR-RES = experiment: Antiproliferative activity against human NCI-ADR-RES cells assessed as cell growth inhibition incubated for 72 hrs by MTT assay; assay type: functional
NCI-H460 = experiment: Antiproliferative activity against human NCI-H460 cells assessed as cell growth inhibition incubated for 72 hrs by MTT assay; assay type: functional
MDA-MB-435 = experiment: Antiproliferative activity against human MDA-MB-435 cells assessed as cell growth inhibition incubated for 72 hrs by MTT assay; assay type: functional
MDA-MB-468 = experiment: Antiproliferative activity against human MDA-MB-468 cells assessed as cell growth inhibition incubated for 72 hrs by MTT assay; assay type: functional
M14 = experiment: Antiproliferative activity against human M14 cells assessed as cell growth inhibition incubated for 72 hrs by MTT assay; assay type: functional
U-251 = experiment: Antiproliferative activity against human U-251 cells assessed as cell growth inhibition incubated for 72 hrs by MTT assay; assay type: functional
SU-DHL10 [4] = experiment: Antiproliferative activity against human SU-DHL-10 cells assessed as proliferating cells at 1 uM incubated for 72 hrs by MTT assay relative to control; assay type: functional
SNB-19 = experiment: Antiproliferative activity against human SNB-19 cells assessed as cell growth inhibition incubated for 72 hrs by MTT assay; assay type: functional
OVCAR-4 = experiment: Antiproliferative activity against human OVCAR-4 cells assessed as cell growth inhibition incubated for 72 hrs by MTT assay; assay type: functional
VL51 [5] = experiment: Antiproliferative activity against human VL51 cells assessed as proliferating cells at 1 uM incubated for 72 hrs by MTT assay relative to control; assay type: functional
HCT-15 = experiment: Antiproliferative activity against human HCT-15 cells assessed as cell growth inhibition incubated for 72 hrs by MTT assay; assay type: functional
A549 = experiment: Antiproliferative activity against human A549 cells assessed as cell growth inhibition incubated for 72 hrs by MTT assay; assay type: functional
HOP-62 = experiment: Antiproliferative activity against human HOP-62 cells assessed as cell growth inhibition incubated for 72 hrs by MTT assay; assay type: functional
NCI-H23 = experiment: Antiproliferative activity against human NCI-H23 cells assessed as cell growth inhibition incubated for 72 hrs by MTT assay; assay type: functional
NCI-H226 = experiment: Antiproliferative activity against human NCI-H226 cells assessed as cell growth inhibition incubated for 72 hrs by MTT assay; assay type: functional
TK-10 = experiment: Antiproliferative activity against human TK-10 cells assessed as cell growth inhibition incubated for 72 hrs by MTT assay; assay type: functional
HCC 2998 = experiment: Antiproliferative activity against human HCC 2998 cells assessed as cell growth inhibition incubated for 72 hrs by MTT assay; assay type: functional
UACC-257 = experiment: Antiproliferative activity against human UACC-257 cells assessed as cell growth inhibition incubated for 72 hrs by MTT assay; assay type: functional
KM12 = experiment: Antiproliferative activity against human KM12 cells assessed as cell growth inhibition incubated for 72 hrs by MTT assay; assay type: functional
IGROV-1 = experiment: Antiproliferative activity against human IGROV-1 cells assessed as cell growth inhibition incubated for 72 hrs by MTT assay; assay type: functional
COLO 205 = experiment: Antiproliferative activity against human COLO 205 cells assessed as cell growth inhibition incubated for 72 hrs by MTT assay; assay type: functional
MDA-MB-231 = experiment: Antiproliferative activity against human MDA-MB-231 cells assessed as cell growth inhibition incubated for 72 hrs by MTT assay; assay type: functional
SU-DHL10 [6] = experiment: Antiproliferative activity against human SU-DHL-10 cells assessed as inhibition of cell proliferation incubated for 72 hrs by MTT assay; assay type: functional, cell-based; details: SU-DHL10, 72 h
A498 = experiment: Antiproliferative activity against human A498 cells assessed as cell growth inhibition incubated for 72 hrs by MTT assay; assay type: functional
Hs-578T = experiment: Antiproliferative activity against human Hs-578T cells assessed as cell growth inhibition incubated for 72 hrs by MTT assay; assay type: functional
OVCAR-5 = experiment: Antiproliferative activity against human OVCAR-5 cells assessed as cell growth inhibition incubated for 72 hrs by MTT assay; assay type: functional

Structure (SMILES): COc1ccc(Cn2cc3c(c2-c2cc(OC)c(OC)c(OC)c2)CCc2c(CN4CCOCC4)noc2-3)cc1
- GI50 (SF-268): 0.78 µM
- GI50 (RXF 393): 290 nM
- GI50 (SF-295): 470 nM
- GI50 (UACC-62): 610 nM
- GI50 (OVCAR-8): 1920 nM
- IC50 [1]: 500 nM
- IC50 (VL51 [2]): 200 nM
- GI50 (CCRF-CEM): 1260 nM
- GI50 (HT-29): 640 nM
- GI50 (SR): 380 nM
- GI50 (Malme-3M): 500 nM
- GI50 (BT-549): 1340 nM
- Activity [3]: 5.3%
- GI50 (DU-145): 1990 nM
- GI50 (SW-620): 430 nM
- GI50 (LOX IMVI): 620 nM
- GI50 (SK-MEL-5): 1860 nM
- GI50 (SNB-75): 310 nM
- GI50 (MCF7): 360 nM
- GI50 (NCI-H522): 300 nM
- GI50 (SN12C): 3.81 µM
- GI50 (NCI/ADR-RES): 430 nM
- GI50 (NCI-H460): 520 nM
- GI50 (MDA-MB-435): 250 nM
- GI50 (MDA-MB-468): 340 nM
- GI50 (M14): 560 nM
- GI50 (U-251): 880 nM
- Activity (SU-DHL10 [4]): 0.7%
- GI50 (SNB-19): 860 nM
- GI50 (OVCAR-4): 6.84 µM
- Activity (VL51 [5]): 53.3%
- GI50 (HCT-15): 510 nM
- GI50 (A549): 1130 nM
- GI50 (HOP-62): 1000 nM
- GI50 (NCI-H23): 2170 nM
- GI50 (NCI-H226): 890 nM
- GI50 (TK-10): > 100 µM
- GI50 (HCC 2998): 2.17 µM
- GI50 (UACC-257): 1 µM
- GI50 (KM12): 400 nM
- GI50 (IGROV-1): 810 nM
- GI50 (COLO 205): 590 nM
- GI50 (MDA-MB-231): 2250 nM
- IC50 (SU-DHL10 [6]): 500 nM
- GI50 (A498): 320 nM
- GI50 (Hs-578T): 500 nM

Structure (SMILES): CCOC(=O)c1noc2c1CCc1c-2cn(Cc2ccc(OC)cc2)c1-c1cc(OC)c(OC)c(OC)c1
- GI50 (SF-268): 8.07 µM
- GI50 (RXF 393): 2170 nM
- GI50 (SF-295): 3020 nM
- GI50 (UACC-62): 2740 nM
- GI50 (OVCAR-8): 3040 nM
- IC50 [1]: 1400 nM
- IC50 (VL51 [2]): 1800 nM
- GI50 (CCRF-CEM): 1040 nM
- GI50 (HT-29): 850 nM
- GI50 (SR): 2090 nM
- GI50 (BT-549): 1470 nM
- Activity [3]: 41.3%
- GI50 (DU-145): 2320 nM
- GI50 (SW-620): 500 nM
- GI50 (LOX IMVI): 650 nM
- GI50 (SK-MEL-5): 490 nM
- GI50 (SNB-75): 3650 nM
- GI50 (MCF7): 350 nM
- GI50 (NCI-H522): 370 nM
- GI50 (SN12C): 3.92 µM
- GI50 (NCI/ADR-RES): 3520 nM
- GI50 (NCI-H460): 1000 nM
- GI50 (MDA-MB-435): 570 nM
- GI50 (MDA-MB-468): 5620 nM
- GI50 (M14): 410 nM
- GI50 (U-251): 540 nM
- GI50 (OVCAR-5): 4.72 µM
- Activity (SU-DHL10 [4]): 59%
- GI50 (SNB-19): 670 nM
- GI50 (OVCAR-4): 20.5 µM
- Activity (VL51 [5]): 79.7%
- GI50 (HCT-15): 500 nM
- GI50 (A549): 3800 nM
- GI50 (HOP-62): 3000 nM
- GI50 (NCI-H23): 3040 nM
- GI50 (NCI-H226): > 100000 nM
- GI50 (TK-10): > 100 µM
- GI50 (HCC 2998): 5.17 µM
- GI50 (UACC-257): 85.8 µM
- GI50 (KM12): 910 nM
- GI50 (IGROV-1): 2450 nM
- GI50 (COLO 205): 1770 nM
- GI50 (MDA-MB-231): 2700 nM
- IC50 (SU-DHL10 [6]): 2000 nM
- GI50 (A498): 2770 nM
- GI50 (Hs-578T): 2990 nM
